Laboratory results from US20220023289A1, “Application Of Pyrroloquinoline Quinone In Preparation Of Medicament Used For Preventing And Treating Acute Altitude Sickness And Acute Altitude Hypoxia Injury” (priority 2018, published 2022).

Experiments:
[1] = system: rats with acute altitude hypoxia injury; test: Serum energy metabolism indexes (ATP, lactic acid) in rats with acute altitude hypoxia injury; format: in vivo, Wistar rat
Experimental: Determination of adenosine triphosphate (ATP): Perform enzyme-linked immunosorbent assay by double-antibody one-step sandwich method. To the coated microwells pre-coated with rat adenosine triphosphate (ATP) capture antibody, add in sequence the specimens, standard, and HRP-labeled detection antibody, and then incubate and wash thoroughly. Use a substrate TMB for color development, TMB is converted into blue under the catalysis of peroxidase and converted into the final yellow color under the action of acid. The color intensity is positively correlated with the rat adenosine triphosphate (ATP) in the sample. […] Determination of lactic acid (LC): Perform enzyme-linked immunosorbent assay by double-antibody one-step sandwich method. To the coated microwells pre-coated with rat lactic acid (LC) capture antibody, add in sequence the specimens, standard, and HRP-labeled detection antibody, and then incubate and wash thoroughly. Use a substrate TMB for color development. TMB is converted into blue under the catalysis of peroxidase and converted into the final yellow color under the action of acid. The color intensity is positively correlated with the rat lactic acid (LC) in the sample.

[2] = Body weight of male mice in exhaustive swimming experiment; details: 0.16 g/kg
Experimental: Select healthy male Kunming mice weight 18-22 g. After feeding for 3 days, they are randomly divided into seven groups according to their body weight, each group has 10±1 mice. The groups are divided as follows: 5 groups of the drug test group, respectively, are given 1.32 mg/kg, 2.64 mg/kg, 5.28 mg/kg, 10.56 mg/kg, and 21.12 mg/kg drugs by gavage administration. […] After administration for 7 days, select an exhaustive swimming experiment under hypoxic conditions perform physical work ability evaluation; the observation index is an exhaustive swimming time. In the decompression and hypoxia compound laboratory chamber, decompression hypoxia is performed to an altitude of 6000 m, the swimming box is filled with water at a depth of 40 cm and the water temperature is 25° C. The animal is placed in the swimming box, and use a stopwatch to record a time from the start of swimming to exhaustion of the animal. Exhaustive swimming time is the time when an animal still cannot surface for 9 s after sinking.

Compound: O=C(O)c1cc(C(=O)O)c2c(n1)C(=O)C(=O)c1cc(C(=O)O)[nH]c1-2 [PQQ, pyrroloquinoline quinone]
- serum Lactic acid ([1]; female rats, hypoxia, 0.91 mg/kg): 222.06 ± 12.56 ng/L
- serum Lactic acid ([1]; female rats, hypoxia, 1.83 mg/kg): 221.04 ± 14.36 ng/L
- serum Lactic acid ([1]; female rats, hypoxia, 3.66 mg/kg): 242.8 ± 8.13 ng/L
- serum Lactic acid ([1]; female rats, hypoxia, 7.31 mg/kg): 196.41 ± 11.86 ng/L
- serum Lactic acid ([1]; female rats, hypoxia, 14.63 mg/kg): 173.09 ± 24.20 ng/L
- effect on serum ATP content ([1]; female rats, normoxia): no significant effect
- effect on serum lactic acid content ([1]; female rats, normoxia): reducing
- serum Lactic acid ([1]; female rats, normoxia, 3.66 mg/kg): 116.73 ± 13.32 ng/L
- effect on serum ATP and lactic acid content ([1]; hypoxia exposed female rats): increasing
- effect on serum ATP and lactic acid content ([1]; male rats): no significant effects
- serum Lactic acid ([1]; male rats, hypoxia, 0.91 mg/kg): 188.70 ± 29.68 ng/L
- serum Lactic acid ([1]; male rats, hypoxia, 1.83 mg/kg): 177.33 ± 19.55 ng/L
- serum Lactic acid ([1]; male rats, hypoxia, 3.66 mg/kg): 189.12 ± 24.64 ng/L
- serum Lactic acid ([1]; male rats, hypoxia, 7.31 mg/kg): 172.64 ± 12.25 ng/L
- serum Lactic acid ([1]; male rats, hypoxia, 14.63 mg/kg): 180.81 ± 24.64 ng/L

Compound: CC(=O)Nc1nnc(S(N)(=O)=O)s1 [Acetazolamide, reference compound]
- serum Lactic acid ([1]; female rats, hypoxia, 0.11 g/kg): 132.16 ± 10.42 ng/L
- effect on serum ATP and lactic acid content ([1]; female rats, last sentence of b195 (normoxia per Table 37)): reducing
- serum Lactic acid ([1]; female rats, normoxia, 0.11 g/kg): 100.54 ± 7.13 ng/L
- effect on serum ATP and lactic acid content ([1]; hypoxia exposed female rats): no significant effects
- effect on serum ATP ([1]; male rats): no significant effects
- effect on serum lactic acid content ([1]; male rats): reducing
- serum Lactic acid ([1]; male rats, hypoxia, 0.11 g/kg): 161.46 ± 6.94 ng/L
- body weight male 1 day [2]: 21.28 ± 1.38 g
- body weight male 7 days [2]: 23.05 ± 4.41 g
